Tests used:
[1] = solubility of the active principle; assay type: physicochemical
Text: The active principle is an individual substance of the xanthone nature (mangiferin euxantogen) of the formula C19 H18 O11. […] This compound has not been hitherto used in the medicine.

[2] = test system: herpetic encephalitis (HV); assay: experimental virus model of herpetic encephalitis of white mice; assay type: in vivo; conditions: for Average life span: control 4.78 ± 0.46; for Life span: control 12.7 ± 2.6; for Survival, %: control 70
Procedure: The chemotherapeutic effect of the active principle and the pharmaceutical composition on the whole has been studied on an experimental virus model of herpetic encephalitis of white mice. In the experiments more than 1,500 animals were used. To obtain the experimental encephalitis, white mice weighing 8-10 g have been infected intracerebrally. Prior to the infection the animal head skin is smeared with iodine, then ten-times dilutions of the virus-containing liquid in the volume of 0.03 ml are injected by means of a tuberculin syringe into the supraorbital area near the front median line to a depth of 1-2 mm directly into the brain. 3 to 7 days thereafter in the animals there were observed the disease signs (excitation, coordination disturbance, adynamia, paresis and paralysis) which were rapidly intensified and terminated in death. The experiments were assessed by the animal survival (in percent) and by the average life span of the test animals as compared to the control.
For treatment purposes the active principle or the medicated compound in the form of tablets is administered to the infected animals per os by means of a gastric tube as an aqueous suspension in the volume of 0.5 ml in doses of 20 to 500 mg/kg of the body weight 1 or 2 times per day. The tests have been carried out according to three schemes. In the first scheme, in order to preliminarily saturate the animal's organism with the active principle or the preparation were administered to the animals 1-2 days before the infection (preventive test). In the second scheme, to reveal the therapeutic effect of the active principle or the pharmaceutical composition, the compositions were introduced on the infection day and one or two days after the infection. In the third scheme (treatment-prophylaxis) the active principle or the medicated compound is administered the day before the infection or on the infection day, in both cases the treatment of the animal is continued for 5 to 7 days after the infection.
The most advantageous chemotherapeutic effect of the active principle or the pharmaceutical composition is manifested under the conditions of the treatment-prophylaxis application (third scheme).

[3] = test system: smooth muscles of an isolated section of a rat's small intestine; assay: spasmolytic effect on acetylcholine and barium spasms of smooth muscles of an isolated section of small intestine
Text: The cardiological effect of the active principle has been studied in experiments on an isolated cat's heart; the effect on electrocardiographic characteristics has been studied in experiments on rabbits; the vasodilative effect--on vessels of an isolated rabbit's ear; the spasmolytic effect--on acetylcholine and barium spasms of smooth muscles of an isolated section of a rat's small intestine.

[4] = neurotropic activity: influence upon the somnific effects of hexenal or chloralhydrate; assay type: in vivo; conditions: per os, 1, 10 and 100 mg/kg
Procedure: The neurotropic activity of the active principle is assessed through its influence upon the somnific effects of hexenal or chloralhydrate. The substance is introduced per os in the doses of 1, 10 and 100 mg/kg.

teratogenic activity = assay type: in vivo, rats; conditions: 10 and 100 mg/kg per os daily for 30 days
Procedure: The study of the teratogenic activity of the active principle has been carried out on 15 couples of adult rats weighing 350 g divided into 3 groups of 5 couples in each. The females of the first group were daily administred 10 mg/kg of the active principle per os for 30 days until the birth of small rats; the females of the second group were administered 100 mg/kg of the active principle during the same period; the females of the third group were the control.

[5] = once a day, 0.04 mg/mice, P above 0.5
[6] = once a day, 0.2 mg/mice, P above 0.25
[7] = once a day, 1 mg/mice, P above 0.25
[8] = once a day, 5 mg/mice, P above 0.5
[9] = two times a day, 0.04 mg/mice, P above 0.1
[10] = two times a day, 0.2 mg/mice, P below 0.05
[11] = two times a day, 1 mg/mice, P below 0.05
[12] = two times a day, 5 mg/mice, P above 0.1

O=c1c2cc(O)c(O)cc2oc2cc(O)c([C@@H]3O[C@H](CO)[C@@H](O)[C@H](O)[C@H]3O)c(O)c12 [active principle, 2-C-β-D-glucopyranosyl-1,3,6,7-tetraoxyxanthone]
solubility in chloroform ([1]; chloroform): insoluble | solubility in ethanol ([1]; ethanol): sparingly soluble | solubility in ethyl ether ([1]; ethyl ether): insoluble | solubility in water ([1]; water): insoluble | chemotherapeutic effect ([2]; administration in maximum shortest time of the infection (Table 2)): highest | chemotherapeutic effect ([2]; administration two times a day (Table 1)): highest, statistically certain chemotherapeutic effect | chemotherapeutic effect (time of death vs control) ([2]; first two schemes (preventive; therapeutic), per os): impossible to reveal statistically certain chemotherapeutic effect | Average life span ([2]; on the infection day, 1 mg/mice, P above 0.25): 5.16 ± 0.91 days | Average life span ([2]; on the infection day, 2 mg/mice, P above 0.5): 5.0 ± 0.56 days | Average life span ([2]; on the infection day, 5 mg/mice, P below 0.05): 6.41 ± 0.71 days | Life span [2, 5]: 13.3 ± 2.5 days | Survival, % [2, 5]: 80% | Life span [2, 6]: 14.0 ± 2.3 days | Survival, % [2, 6]: 90% | Life span [2, 7]: 14.0 ± 2.2 days | Survival, % [2, 7]: 90% | Life span [2, 8]: 13.1 ± 2.7 days | Survival, % [2, 8]: 70% | Average life span ([2]; one day before infection, 1 mg/mice, P 0.05): 5.6 ± 0.82 days | Average life span ([2]; one day before infection, 2 mg/mice, P below 0.05): 6.05 ± 0.83 days | Average life span ([2]; one day before infection, 5 mg/mice, P below 0.05): 6.13 ± 1.04 days | Life span [2, 9]: 14.1 ± 0.9 days | Survival, % [2, 9]: 90% | Life span [2, 10]: 15.0 days | Survival, % [2, 10]: 100% | Life span [2, 11]: 15.0 days | Survival, % [2, 11]: 100% | Life span [2, 12]: 14.3 ± 2.5 days | Survival, % [2, 12]: 90% | spasmolytic effect [3]: no vasodilative and spasmolytic effect | effect on duration of sleep caused by chloralhydrate [4]: no substantial effect | effect on duration of sleep caused by hexenal [4]: no substantial effect | teratogenic properties (teratogenic activity): no teratogenic properties | mutagenous activity (mutagenous activity): no mutagenous activity
